Data as given in patent US9682028B2, “Personal care photoprotective compositions with tricyclodecane amides” (Conopco, Inc., priority 2013, dated 2017).
Where two headings read alike, the source gives them in different places.

Tests used:
human sebocytes = assay: Sebocyte assay (sebum suppression, 14C-acetate incorporation); type: cell-based; conditions: for inhibition at 10 µM: read-out: % Reduction at 10 microMolar; for inhibition at 100 µM: read-out: % Reduction at 100 microMolar
Description: Sebum suppression effect of the tricyclodecane amides suitable for use in the present invention was investigated.
Secondary cultures of human sebocytes obtained from an adult […] were grown in 96-well tissue culture plates (Packard) until three days post-confluence. Sebocyte growth medium consisted of Clonetics Keratinocyte Basal Medium (KBM) supplemented with 14 μg/ml bovine pituitary extract, 0.4 μg/ml hydrocortisone, 5 μg/ml insulin, 10 ng/ml epidermal growth factor, 1.2×10^−10 M cholera toxin, 100 units/ml penicillin, and 100 μg/ml streptomycin. All cultures were incubated at 37° C. in the presence of 5% CO2. Medium was changed three times per week.
On the day of experimentation, the growth medium was removed and the sebocytes washed three times with sterile Dulbecco's Modified Eagle Medium (DMEM; phenol red free). Fresh DMEM was added to each sample (triplicates) with 5-microliters of test agent solubilized in ethanol. Controls consisted of addition ethanol alone. Each plate was returned to the incubator for 20-hours followed by the addition of ^14C-acetate buffer (5 mM final concentration, 56 mCi/mmol specific activity). Sebocytes were returned to the incubator for 4-hours after which each culture was rinsed 3-times with phosphate buffered saline to remove unbound label. Radioactive label remaining in the sebocytes was determined using a Packard Microbeta, scintillation counter. Phenol Red, a known sebum suppressive agent, was employed as a positive control.

[1] = In vitro MPF evaluation (monochromatic protection factor); type: physicochemical; conditions: summary of Table 4
Description: MPF=monochromatic protection factor=1/Transmittance at a specific wavelength (lower transmittance gives higher MPF therefore higher absorption for the sunscreen). 305 nm=UVB, 360 nm=UVA. MPF was measured using the same apparatus as SPF above. MPF % increase over control (measured MPF at 305 nm and 360 nm for selected formulation−measured MPF at 305 nm and 360 nm of control)/measured MPF at 305 nm and 360 nm of control×100.

[2] = In vitro SPF evaluation (Optometric 290S SPF meter, PMMA plate); type: physicochemical; conditions: summary of Table 2
Description: SPF, UV-A, and UV-B improvement of compositions within the scope of the invention was investigated.
In vitro SPF measurement was done using the Optometric 290S SPF meter. The product was applied at a dosage of 2 mg/cm^2 on PMMA (polymethylmethacrylate) plate (7 cm×7 cm) and allowed to air dry for 30 minutes. The average SPF value was obtained from 6 SPF readings per plate. Two duplicated runs, the standard deviation from the average was ±2 SPF units. % increase of in vitro SPF versus control calculation: (measured SPF for selected formulation−measured SPF of control)/measured SPF of control×100.

[3] = 10 microMolar test agent, 20 h incubation then 4 h 14C-acetate, radioactive label remaining in sebocytes
[4] = 100 microMolar test agent, 20 h incubation then 4 h 14C-acetate, radioactive label remaining in sebocytes

SMILES | inhibition at 10 µM (human sebocytes; [3]) [%] | inhibition at 100 µM (human sebocytes; [4]) [%] | further results
O=C(N1CCOCC1)C12CC3CC(CC(C3)C1)C2 [Compound C1, Methanone, (morphonyl)tricyclo[3.3.1.1^3,7]dec-1-yl-] | 35.4 | 78.5 | 
O=C(N1CCCCC1)C12CC3CC(CC(C3)C1)C2 [Compound C2, Methanone, (piperidiny)tricyclo[3.3.1.1^3,7]dec-1-yl-] | 34.3 | 51.6 | 
O=C(N1CCC1)C12CC3CC(CC(C3)C1)C2 [Compound C4, Methanone, (azetidinyl)tricyclo[3.3.1.1^3,7]dec-1-yl-] |  |  | inhibition at 10 µM (human sebocytes): 16.3%; inhibition at 100 µM (human sebocytes): 27.9%
O=C(N1CCCCCC1)C12CC3CC(CC(C3)C1)C2 [Compound C5, Methanone, (hexahydroazepinyl)tricyclo[3.3.1.1^3,7]dec-1-yl-] | 32.4 | 50.5 | 
N#CC1CCN(C(=O)C23CC4CC(CC(C4)C2)C3)CC1 [Compound C6, Methanone, (4-cyano-piperidinyl)tricyclo[3.3.1.1^3,7]dec-1-yl] | 24.8 | 39.4 | 
NC(=O)C1CCN(C(=O)C23CC4CC(CC(C4)C2)C3)CC1 [Compound C7, Methanone, (4-amido-piperidinyl)tricyclo[3.3.1.1^3,7]dec-1-yl-] | 58.9 | 73.4 | 
O=C(NC12CC3CC(CC(C3)C1)C2)C12CC3CC(CC(C3)C1)C2 [Compound C8, Methanone, (Tricyclo[3.3.1.1^3,7]decanyl)-N-tricyclo[3.3.1.1^3,7]dec-1-yl-] | 19.1 | 58.8 | 
O=C(N1CCC2CCCCC2C1)C12CC3CC(CC(C3)C1)C2 (stereo not drawn) [Compound C9, Methanone, (decahydroisoquinolinyl)tricyclo[3.3.1.1^3,7]dec-1-yl-] | 81.2 | 86.8 | 
O=C(N1CCCC2CCCCC21)C12CC3CC(CC(C3)C1)C2 (stereo not drawn) [Compound C10, Methanone, (decahydroquinolinyl)tricyclo[3.3.1.1^3,7]dec-1-yl-] | 63.4 | 89.6 | 
CC1(C)CCCN(C(=O)C23CC4CC(CC(C4)C2)C3)C1 [Compound C11, Methanone, (3,3-dimethyl-1-piperidinyl)tricyclo[3.3.1.1^3,7]dec-1-yl] | 39.3 | 76.6 | 
CC1CCCCN1C(=O)C12CC3CC(CC(C3)C1)C2 (stereo not drawn) [Compound C12, Methanone, (2-methyl-1-piperidinyl)tricyclo[3.3.1.1^3,7]dec-1-yl-] |  |  | inhibition at 10 µM (human sebocytes): 24.5%; inhibition at 100 µM (human sebocytes): 51%
CC1CCN(C(=O)C23CC4CC(CC(C4)C2)C3)CC1 [Compound C13, Methanone, (4-methyl-1-piperidinyl)tricyclo[3.3.1.1^3,7]dec-1-yl] | 63.5 | 90.4 | 
CC1CCCN(C(=O)C23CC4CC(CC(C4)C2)C3)C1 (stereo not drawn) [Compound C14, Methanone, (3-methyl-1-piperidinyl)tricyclo[3.3.1.1^3,7]dec-1-yl] |  |  | inhibition at 10 µM (human sebocytes): 52.8%; inhibition at 100 µM (human sebocytes): 76%
CC1CC(C)CN(C(=O)C23CC4CC(CC(C4)C2)C3)C1 (stereo not drawn) [Compound C15, Methanone, (3,5-dimethyl-1-piperidinyl)tricyclo[3.3.1.1^3,7]dec-1-yl-] | 40.1 | 71 | 
CCC1(C)CCN(C(=O)C23CC4CC(CC(C4)C2)C3)CC1 [Compound C16, Methanone, (4-methyl-4-ethy-piperidinyl)tricyclo[3.3.1.1^3,7]dec-1-yl-] | 49.8 | 80.7 | 
CCC1(CC)CCN(C(=O)C23CC4CC(CC(C4)C2)C3)C1 [Compound C17, Methanone, (3,3-diethyl-pyrrolidinyl)tricyclo[3.3.1.1^3,7]dec-1-yl-] | 32.2 | 65.2 | 
CC(C)N(C(=O)C12CC3CC(CC(C3)C1)C2)C(C)C [Compound C18, Methanone, (N,N-diisopropyl)tricyclo[3.3.1.1^3,7]dec-1-yl-] |  |  | inhibition at 10 µM (human sebocytes): 42%; inhibition at 100 µM (human sebocytes): 52.5%
CC(C)(C)CCNC(=O)C12CC3CC(CC(C3)C1)C2 [Compound C19, Methanone, (3,3-dimethylbutylaminyl)tricyclo[3.3.1.1^3,7]dec-1-yl-] | 35.9 |  | 
CC(C)(C)CNC(=O)C12CC3CC(CC(C3)C1)C2 [Compound C20, Methanone, (2,2-dimethylpropylaminyl)tricyclo[3.3.1.1^3,7]dec-1-yl-] | 49.5 | 82.8 | 
CC(C)(C)CC(C)(C)NC(=O)C12CC3CC(CC(C3)C1)C2 [Compound C21, Methanone, (1,1-dimethyl-3,3-dimethylbutylaminyl)tricyclo[3.3.1.1^3,7]dec-1-yl-] | 26.4 | 43.5 | 
CC(C)CC(C)NC(=O)C12CC3CC(CC(C3)C1)C2 (stereo not drawn) [Compound C22, Methanone, (1,3-dimethyl-butylaminyl)tricyclo[3.3.1.1^3,7]dec-1-yl-] |  |  | inhibition at 10 µM (human sebocytes): 29.1%; inhibition at 100 µM (human sebocytes): 45.3%
O=S1(=O)OC(c2ccc(O)cc2)(c2ccc(O)cc2)c2ccccc21 [Phenol Red, reference compound] | 17.1 | 65.1 | 
CCCCCCCCCCCCCCCCCC(N)=O [octadecanamide] |  |  | UV-A and UV-B protection improvement (in words) [1]: did not achieve these improvements; SPF protection improvement (in words) [2]: did not achieve these improvements
